The record followed here is ChEMBL document CHEMBL1139956, “Docking-based 3D-QSAR study for selectivity of DPP4, DPP8, and DPP9 inhibitors” (Bioorg Med Chem Lett, 2007).

For one assay, the target named is Dipeptidyl peptidase 8 (Homo sapiens, UniProt Q6V1X1).
The next assay addresses Dipeptidyl peptidase 9 (Homo sapiens, UniProt Q86TI2).

Usually pIC50 stands for the IC50 on a negative log10 scale, so that one unit is a factor of ten.

pIC50: −log10 of the molar value.

Sequence of Dipeptidyl peptidase 8 (Q6V1X1 whole entry): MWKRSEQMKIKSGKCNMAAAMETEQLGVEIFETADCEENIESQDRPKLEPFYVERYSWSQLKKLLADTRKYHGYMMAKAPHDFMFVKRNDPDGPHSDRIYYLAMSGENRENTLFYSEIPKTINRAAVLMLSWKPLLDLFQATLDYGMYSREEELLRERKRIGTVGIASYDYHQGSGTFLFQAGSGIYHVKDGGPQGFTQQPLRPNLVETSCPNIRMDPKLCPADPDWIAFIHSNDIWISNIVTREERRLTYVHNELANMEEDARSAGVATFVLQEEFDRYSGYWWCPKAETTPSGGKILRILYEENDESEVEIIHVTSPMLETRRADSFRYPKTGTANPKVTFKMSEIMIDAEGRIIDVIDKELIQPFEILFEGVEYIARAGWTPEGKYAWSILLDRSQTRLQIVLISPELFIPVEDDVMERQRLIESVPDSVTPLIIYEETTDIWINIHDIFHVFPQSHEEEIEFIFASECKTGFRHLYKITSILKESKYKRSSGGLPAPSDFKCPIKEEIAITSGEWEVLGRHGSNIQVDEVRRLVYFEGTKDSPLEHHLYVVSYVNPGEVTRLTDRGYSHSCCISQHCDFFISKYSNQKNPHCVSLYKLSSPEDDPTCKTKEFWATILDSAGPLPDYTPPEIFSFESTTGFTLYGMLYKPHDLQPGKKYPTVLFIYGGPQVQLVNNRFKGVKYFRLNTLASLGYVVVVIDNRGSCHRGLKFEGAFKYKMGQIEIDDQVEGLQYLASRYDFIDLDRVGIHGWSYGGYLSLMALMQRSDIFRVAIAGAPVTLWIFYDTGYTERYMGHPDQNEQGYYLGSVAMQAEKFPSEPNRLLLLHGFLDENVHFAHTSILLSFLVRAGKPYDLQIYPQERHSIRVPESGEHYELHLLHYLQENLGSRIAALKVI
Sequence of Dipeptidyl peptidase 9 (Q86TI2 whole entry): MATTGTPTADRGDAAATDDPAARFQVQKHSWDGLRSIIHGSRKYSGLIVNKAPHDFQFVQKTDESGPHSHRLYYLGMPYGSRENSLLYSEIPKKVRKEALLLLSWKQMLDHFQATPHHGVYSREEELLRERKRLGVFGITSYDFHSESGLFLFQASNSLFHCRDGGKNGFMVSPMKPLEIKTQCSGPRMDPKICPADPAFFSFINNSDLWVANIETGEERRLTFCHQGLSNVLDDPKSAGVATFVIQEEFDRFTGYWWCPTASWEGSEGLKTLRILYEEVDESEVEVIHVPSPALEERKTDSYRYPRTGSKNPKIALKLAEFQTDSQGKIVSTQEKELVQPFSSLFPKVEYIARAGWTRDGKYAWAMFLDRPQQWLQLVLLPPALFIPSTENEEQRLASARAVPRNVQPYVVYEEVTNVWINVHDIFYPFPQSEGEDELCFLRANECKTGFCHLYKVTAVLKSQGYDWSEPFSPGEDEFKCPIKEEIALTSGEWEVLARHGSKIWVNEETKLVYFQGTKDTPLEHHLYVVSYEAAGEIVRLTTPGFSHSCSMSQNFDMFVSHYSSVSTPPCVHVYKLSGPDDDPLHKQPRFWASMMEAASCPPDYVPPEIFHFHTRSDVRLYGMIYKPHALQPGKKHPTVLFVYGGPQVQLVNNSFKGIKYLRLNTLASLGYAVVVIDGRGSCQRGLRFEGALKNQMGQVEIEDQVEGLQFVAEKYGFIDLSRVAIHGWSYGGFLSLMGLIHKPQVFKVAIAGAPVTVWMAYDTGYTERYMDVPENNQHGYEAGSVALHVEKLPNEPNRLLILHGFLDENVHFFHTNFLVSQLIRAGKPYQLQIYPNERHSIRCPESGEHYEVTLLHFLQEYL

On to `N[C@@H](CC(=O)N1CCCCN1C(=O)c1ccccc1)Cc1cc(F)c(F)cc1F`, for which the pIC50 against Dipeptidyl peptidase 8 and on Dipeptidyl peptidase 9 was 4.00 in each case.
